Laboratory results from patent US20240124545A1, “COMPOSITIONS AND METHODS RELATING TO THE TREATMENT OF DISEASES” (ILC THERAPEUTICS LIMITED, priority 2021, published 2024).
“And” between values parts separate entries of the source, which are not always exact repeats. Identical values can stand only once. Like-named read-outs stand apart in the source and are kept apart here.

Key:
HRSV Long strain = assay: HRSV infectivity assay, immunostaining readout in HEp-2 cells; format: cell-based, human respiratory syncytial virus (HRSV) Long strain
HIV-1 LAI [1] = conditions: for HIV Infectivity in HeLa CD4 βgal cells (β-gal units) - antiviral control / HIV Infectivity in HeLa CD4 βgal cells, percentage of vehicle - antiviral control: single data point
in vitro = conditions: human
HIV-1 LAI [2] = assay: microbe, parasite or virus in culture; conditions: Human immunodeficiency virus 1, 48 h, read-out: IC50 (infectivity), Control HIV Inhibitors
HeLa-CD4-βgal cells [3] = assay: XTT viability (cytotoxicity) assay, uninfected HeLa-CD4-βgal cells (Experiment 4); conditions: for Viability of HeLa-CD4-βgal cells in the XTT assay (percentage values): 48 hours, single data point; for Viability of Uninfected HeLa-CD4-β gal Cells (A490): XTT, raw absorbance 490 nm
HeLa-CD4-βgal cells [4] = test system: HeLa-CD4-βgal cells

In the case of `NC(=O)c1ncn([C@@H]2O[C@H](CO)[C@@H](O)[C@H]2O)n1` [Rib, ribavirin, reference compound], the “HRSV infection blocked by antiviral control” value (HRSV Long strain; 50 μM) is reported as “over 99%”, the “HRSV Infectivity in HEp-2 cells (% vehicle)” value (HRSV Long strain; control antiviral 50 μM, 72 hours) is reported as −4.7 % vehicle and the “HRSV Infectivity in HEp-2 cells - Raw OD- Absorbance (490 nm)” value (HRSV Long strain; control antiviral 50 μM, duplicate A490 values) is reported as 0.195 and 0.176.

For `CC(C)OC(=O)[C@H](C)N[P@](=O)(CO[C@H](C)Cn1cnc2c(N)ncnc21)Oc1ccccc1` [TAF, tenofovir alafenamide], the “HIV Infectivity in HeLa CD4 βgal cells (β-gal units) - antiviral control” value (HIV-1 LAI [1]; 0.00005 μM) was 1,043,762 RLU, the “HIV Infectivity in HeLa CD4 βgal cells, percentage of vehicle - antiviral control” value (HIV-1 LAI [1]; 0.00005 μM) was 91.9 % vehicle and the “HIV Infectivity in HeLa CD4 βgal cells (β-gal units) - antiviral control” value (HIV-1 LAI [1]; 0.0003 μM) was 1,038,889 RLU. For the same compound, the “HIV Infectivity in HeLa CD4 βgal cells, percentage of vehicle - antiviral control” value (HIV-1 LAI [1]; 0.0003 μM) was 91.5 % vehicle, the “HIV Infectivity in HeLa CD4 βgal cells (β-gal units) - antiviral control” value (HIV-1 LAI [1]; 0.001 μM) was 935,932 RLU and the “HIV Infectivity in HeLa CD4 βgal cells, percentage of vehicle - antiviral control” value (HIV-1 LAI [1]; 0.001 μM) was 82.4 % vehicle. The “HIV Infectivity in HeLa CD4 βgal cells (β-gal units) - antiviral control” value (HIV-1 LAI [1]; 0.006 μM) was 575,616 RLU, the “HIV Infectivity in HeLa CD4 βgal cells, percentage of vehicle - antiviral control” value (HIV-1 LAI [1]; 0.006 μM) was 50.6 % vehicle and the “HIV Infectivity in HeLa CD4 βgal cells (β-gal units) - antiviral control” value (HIV-1 LAI [1]; 0.03 μM) was 145,403 RLU. For the same compound, the “HIV Infectivity in HeLa CD4 βgal cells, percentage of vehicle - antiviral control” value (HIV-1 LAI [1]; 0.03 μM) was 12.6 % vehicle, the “HIV Infectivity in HeLa CD4 βgal cells (β-gal units) - antiviral control” value (HIV-1 LAI [1]; 0.2 μM) was 6,426 RLU and the “HIV Infectivity in HeLa CD4 βgal cells, percentage of vehicle - antiviral control” value (HIV-1 LAI [1]; 0.2 μM) was 0.3 % vehicle. For the same compound, the “HIV infection blocked by control antivirals” value (HIV-1 LAI [1]; 0.5 μM) was roughly 100%, the “HIV Infectivity in HeLa CD4 βgal cells (β-gal units) - antiviral control” value (HIV-1 LAI [1]; 0.8 μM) was 2,064 RLU and the “HIV Infectivity in HeLa CD4 βgal cells, percentage of vehicle - antiviral control” value (HIV-1 LAI [1]; 0.8 μM) was −0.1 % vehicle. For the same compound, the “HIV Infectivity in HeLa CD4 βgal cells (β-gal units) - antiviral control” value (HIV-1 LAI [1]; 4.0 μM) was 1,893 RLU, the “HIV Infectivity in HeLa CD4 βgal cells, percentage of vehicle - antiviral control” value (HIV-1 LAI [1]; 4.0 μM) was −0.1 % vehicle and the “HIV Infectivity in HeLa CD4 βgal cells (β-gal units) - antiviral control” value (HIV-1 LAI [1]; 20 μM) was 1,475 RLU. The “HIV Infectivity in HeLa CD4 βgal cells, percentage of vehicle - antiviral control” value (HIV-1 LAI [1]; 20 μM) was −0.1 % vehicle, the “HIV Infectivity in HeLa-CD4-βgal cells (% vehicle)” value (HIV-1 LAI [1]; control antiviral 0.5 μM, duplicate data points) was 0.0 % vehicle and the “HIV Infectivity in HeLa CD4 βgal cells (β-galactosidase units)” value (HIV-1 LAI [1]; control antiviral 0.5 μM, individual values) was 3,376 RLU and 3,509 RLU. For the same compound, the CC50 at 48 h (in vitro) was greater than 20000 nM, the IC50 (HIV-1 LAI [2]) was 8 nM and the “Viability of HeLa-CD4-βgal cells in the XTT assay (percentage values)” value (shortened to “Viability … (percentage values)”) (HeLa-CD4-βgal cells [3]; control antiviral 0.00005 μM) was 111.5%. The “Viability of Uninfected HeLa-CD4-β gal Cells (A490)” value (shortened to “Viability … (A490)”) (HeLa-CD4-βgal cells [3]; control antiviral 0.00005 μM) was 0.951, the “Viability … (percentage values)” value (HeLa-CD4-βgal cells [3]; control antiviral 0.0003 μM) was 101.3% and the “Viability … (A490)” value (HeLa-CD4-βgal cells [3]; control antiviral 0.0003 μM) was 0.872. The “Viability … (percentage values)” value (HeLa-CD4-βgal cells [3]; control antiviral 0.001 μM) was 104.6%, the “Viability … (A490)” value (HeLa-CD4-βgal cells [3]; control antiviral 0.001 μM) was 0.897 and the “Viability … (percentage values)” value (HeLa-CD4-βgal cells [3]; control antiviral 0.006 μM) was 109.1%. For the same compound, the “Viability … (A490)” value (HeLa-CD4-βgal cells [3]; control antiviral 0.006 μM) was 0.932, the “Viability … (percentage values)” value (HeLa-CD4-βgal cells [3]; control antiviral 0.03 μM) was 103.2% and the “Viability … (A490)” value (HeLa-CD4-βgal cells [3]; control antiviral 0.03 μM) was 0.886. The “Viability … (percentage values)” value (HeLa-CD4-βgal cells [3]; control antiviral 0.2 μM) was 104.5%, the “Viability … (percentage values)” value (HeLa-CD4-βgal cells [3]; control antiviral 0.8 μM) was 101.5% and the “Viability … (A490)” value (HeLa-CD4-βgal cells [3]; control antiviral 0.8 μM) was 0.873. For the same compound, the “Viability … (percentage values)” value (HeLa-CD4-βgal cells [3]; control antiviral 4.0 μM) was 104.1%, the “Viability … (A490)” value (HeLa-CD4-βgal cells [3]; control antiviral 4.0 μM) was 0.894 and the “Viability … (percentage values)” value (HeLa-CD4-βgal cells [3]; control antiviral 20 μM) was 88.2%. For the same compound, the “Viability … (A490)” value (HeLa-CD4-βgal cells [3]; control antiviral 20 μM) was 0.770.

In the case of `C[S+](C)[O-]` [DMSO], the “Viability of Uninfected HeLa-CD4-β gal Cells (% vehicle alone), controls” value (HeLa-CD4-βgal cells [4]) is reported as −0.5 ± 0.1 % vehicle alone.
